Assay [1] deals with E. coli clinical isolate expressing IMP-1. Kind of assay: Meropenem MIC against E. coli clinical isolate expressing IMP-1 (Test Example 10). The assay is classed as cell-based. On the procedure:
The enhancing effect of DTPA-ADCA on the susceptibility of E. coli clinical isolate expressing IMP-1 to a carbapenem antibacterial agent (meropenem) was evaluated by the following method. The E. coli clinical isolate was cultured overnight with shaking in LB medium. The bacterial solution was diluted to 1/1000 with LB medium, used as a test bacterial solution, and then seeded in a 96-well plate. Meropenem (Wako Pure Chemical Industries, Ltd.) was added to the bacterial solution, thereby performing two-step dilution from a maximum of 10 μg/ml. The bacteria were cultured in an incubator at 37° C. for one day, and growth at that time was measured by turbidity (655 nm). The meropenem concentration at which no bacterial growth had been observed was defined as the minimum inhibitory concentration.
The effect of DTPA-ADCA on the susceptibility of an E. coli clinical isolate to meropenem was evaluated by the following method. The E. coli clinical isolate was cultured overnight with shaking in LB medium. The bacterial solution was diluted to 1/1000 with LB medium, used as the test bacterial solution, and then seeded in a 96-well plate. Meropenem (Wako Pure Chemical Industries, Ltd.) was added to this bacterial solution in the range of 0.1 μg/ml to 0.005 μg/ml. Here, DTPA or DTPA-ADCA was used in combination therewith at a concentration of […], and the effect on bacterial growth was examined. The bacteria were cultured in an incubator at 37° C. for one day, and the growth at that time was measured by turbidity (655 nm).
FIG. 20 depicts the results. Multidrug-resistant E. coli was cultured with compounds having the indicated concentrations and the bacterial load was assessed by turbidity after 24 hours. […] Combined use of DTPA-ADCA (20 μM) reduced the minimum inhibitory concentration of meropenem to […] and enhanced the antibacterial activity by 100 times.

Assay [2] concerns IMP-1-expressing Klebsiella pneumoniae. Kind of assay: Survival of Leukopenia mice infected with IMP-1-expressing Klebsiella pneumoniae (Test Example 6). Particulars: meropenem 10 mg/kg and compound 1 50 mg/kg subcutaneously 30 min after infection; 48 hours; Leukopenia ddY mice. The assay is classed as in vivo. Here is the method: DTPA-conjugated cefalexin (compound 1)'s effect of enhancing the drug susceptibility of pathogenic bacteria was examined by an in vivo experiment using bacteria-infected mice. To prepare a compromised Leukopenia mouse model, 0.1 mL of cyclophosphamide monohydrate (Sigma-Aldrich) prepared with PBS was administered intraperitoneally to 4-week-old male ddY mice (Japan SLC) at 250 mg/kg at 4 days before infection. IMP-1-expressing Klebsiella pneumoniae used herein was a clinical isolate provided by Kumamoto University Hospital. The bacteria were cultured overnight with shaking in LB medium at 37° C., then diluted 50-fold with LB medium, and further cultured with shaking, so that the turbidity (600 nm) was 1.5 or higher. The bacteria were centrifuged to remove the medium, washed twice with PBS, and then diluted with PBS to 5×10^5 CFU/mL. In the mouse infection experiment, each Leukopenia mouse was infected with 0.1 mL (5×10^4 CFU) of IMP-1-expressing Klebsiella pneumoniae by intraperitoneal injection. Thirty minutes after infection, 0.1 mL of a mixed solution containing meropenem (Wako Pure Chemical Industries, Ltd.) and compound 1 (DTPA-CEF) was subcutaneously administered to each mouse of a treatment mouse group at 10 mg/kg and 50 mg/kg, respectively. […] Forty-eight hours after infection, mice were assessed for viability. […]

The next assay relates to IMP-1-expressing E. coli. Kind of assay: Susceptibility of IMP-1-expressing E. coli to meropenem (Test Example 5). Type of assay: cell-based. Particulars: compound at 25 μM; meropenem diluted from 2 μM; turbidity 655 nm after one day. Here is the method: Based on the description of NON PATENT LITERATURE 5, IMP-1-expressing E. coli was prepared.
The effects of DTPA-cefalexin and NOTA-cefalexin on the susceptibility of IMP-1-expressing E. coli to a carbapenem antibacterial agent (meropenem) were evaluated by the following method. The IMP-1-expressing E. coli was cultured overnight with shaking in LB medium containing 100 μg/ml ampicillin. The bacterial solution was diluted to 1/200 with LB medium, used as a test bacterial solution, and then seeded in a 96-well plate. Meropenem (Wako Pure Chemical Industries, Ltd.) was added to the bacterial solution, thereby performing two-step dilution from a maximum of 2 μM. The bacteria were cultured in an incubator at 37° C. for one day, and the growth at that time was measured by turbidity (655 nm). FIGS. 8 and 9 depict the results.
FIG. 8 depicts the susceptibility to meropenem when DTPA-cefalexin was added at 25 μM, or EDTA or DTPA was added at 25 μM. FIG. 9 depicts susceptibility to meropenem when NOTA-cefalexin was added at 25 μM. Those denoted as “control” in the figure show the results of adding only meropenem.

In assay [3] the target is T1, recombinant metallo-β-lactamase (recombinant IMP-1) (Serratia marcescens, UniProt P52699).
T1 construct: made in house; host or cells: E. coli BL21(DE3), vector pET29a
T1 sequence (P52699 19-246 limits assumed): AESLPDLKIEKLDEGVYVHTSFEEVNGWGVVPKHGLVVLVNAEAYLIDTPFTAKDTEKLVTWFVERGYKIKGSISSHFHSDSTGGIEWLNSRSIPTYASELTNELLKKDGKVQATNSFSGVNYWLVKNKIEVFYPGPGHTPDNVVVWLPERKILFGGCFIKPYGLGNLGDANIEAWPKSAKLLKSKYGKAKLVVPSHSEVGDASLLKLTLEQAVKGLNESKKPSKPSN
Description: Inhibition of meropenem degradation by recombinant IMP-1 (Test Example 1). Type of assay: biochemical. Particulars: compound at 1, 5, and 10 μM; 100 μM meropenem; 1 hour at 37° C.; tandem mass spectrometry. On the procedure:
Based on the description of NON PATENT LITERATURE 5, a recombinant metallo-β-lactamase (recombinant IMP-1) was prepared. “NG_049172” of Database: RefSeq as the IMP-1 gene was incorporated into vector pET29a (Novagen), and then expressed in E. coli BL21(DE3) (Invitrogen).
Recombinant IMP-1 was dissolved in a 50 mM sodium phosphate buffer (pH 7.6) at a concentration of 0.25 μg/ml. Furthermore, zinc chloride was added to the solution in such a manner that the concentration was 0.1 μM. The resultant in this state was subjected to preincubation at 37° C. for 10 minutes. […] After 1 hour of incubation at 37° C. residual meropenem was quantified by tandem mass spectrometry. Meropenem was quantified by a multiple reaction monitoring method. […]
Reverse phase column: YMC-Triat C18 Plus column (2.1×50 mm); column temperature: 45° C.; mobile phase (2 liquids): mobile phase A (0.1% formic acid aqueous solution), mobile phase B (acetonitrile); gradient: increase from 1% B to 80% B for 10 minutes, keep it at 80% B for 0.5 minutes, and then return it to 1% B over 1 minute. […] Detection: multiple reaction monitoring, parent ion at 384.2, child ion at 68.1; measured in a positive ion mode.
FIG. 4 depicts a graph showing the results of quantifying the peak area of meropenem detected in FIG. 3. The peak of meropenem alone is expressed as 100%.

[4] abbreviates: combined use of DTPA-ADCA (20 μM).

In the case of `O=C(O)CN(CCN(CC(=O)O)CC(=O)O)CCN(CC(=O)O)CC(=O)O` [DTPA, reference compound], in assay [1] (DTPA used in combination with meropenem), the “effect on the minimum inhibitory concentration of meropenem” value is on record as “had no such effect”.

In the case of `CC1=C(C(=O)O)N2C(=O)[C@@H](NC(=O)C(NC(=O)CN(CCN(CCN(CC(=O)O)CC(=O)O)CC(=O)O)CC(=O)O)c3ccccc3)[C@H]2SC1` (stereo partly shown) [compound 1, DTPA-conjugated cefalexin], the percent survival in assay [2] was 50%. Further, the “effect on susceptibility of IMP-1-expressing E. coli to meropenem” value with IMP-1-expressing E. coli is on record as “metallo-β-lactamase-expressing bacteria are killed by the effect of the carbapenem antibacterial agent”. Further, the “inhibition of meropenem degradation by IMP-1 (residual meropenem)” value in assay [3] is listed as “inhibited the degradation of meropenem”.

Consider `CC1=C(C(=O)O)N2C(=O)[C@@H](NC(=O)[C@H](NC(=O)CN3CCN(CC(=O)O)CCN(CC(=O)O)CC3)c3ccccc3)[C@H]2SC1` [compound 7, NOTA-Conjugated Cefalexin], for which the “effect on susceptibility of IMP-1-expressing E. coli to meropenem” value with IMP-1-expressing E. coli was “metallo-β-lactamase-expressing bacteria are killed by the effect of the carbapenem antibacterial agent”.

For `CC1=C(C(=O)O)N2C(=O)[C@@H](NC(=O)CN(CCN(CCN(CC(=O)O)CC(=O)O)CC(=O)O)CC(=O)O)[C@H]2SC1` [compound 6, DTPA-conjugated ADCA], in assay [1] (setting [4]), the “enhancement of the antibacterial activity of meropenem” value came to 100 times and the “minimum inhibitory concentration of meropenem” value came out at 10 µg/mL.

The values above are taken from patent US20240245783A1, “METALLO-BETA-LACTAMASE INHIBITOR” (priority 2021, published 2024).
